The values below come from patent publication US20240109900A1, “AZABICYCLIC SHP2 INHIBITORS” (IRBM S.P.A., priority 2021, published 2024).

SMILES strings stand for the structures. Where two headings read alike, the source gives them in different places.

Assay [1] has as its target SHP-2 enzyme (Met1-Leu525) (Homo sapiens (Human), UniProt Q06124). The assay can be described thus: SHP2 inhibition enzymatic assay. Format: biochemical. The conditions noted are these: read-out: SHP2wt-IC50. The method, boiled down:
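SHP-2 (Met1-Leu525), 0.5 nM, activated with 500 nM IRS1 bis-phosphopeptide, preincubated 30 min with compounds in HEPES pH 7.2 buffer with 5 mM DTT. 75 μM DiFMUP added for 30 min at room temperature, stopped with bpV; fluorescence read. IC50 from four-parameter logistic fit of % inhibition.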

Assay [2] deals with ERK phosphorylation in KYSE-520 cells. The assay can be described thus: Phospho-ERK cellular assay. The format is cell-based. The conditions noted are these: Homo sapiens, KYSE-520 cells, 2 h at 37° C., phospho-ERK1/2 (Thr202/Tyr204) TR-FRET, read-out: PERK IC50. The method, boiled down:
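TR-FRET read-out of ERK1/2 Thr202/Tyr204 phosphorylation was taken after overnight antibody incubation at room temperature. Before that, KYSE-520 cells were treated 2 h at 37 °C with compound dilutions and lysed 30 min. Percent inhibition relative to vehicle and cell-free wells was fitted four-parametrically to give IC50.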
A general note: Time-resolved FRET reads energy transfer from a long-lived donor to a nearby acceptor.

[3] abbreviates: 0.5 nM SHP-2 activated by 500 nM IRS1 peptide, 75 μM DiFMUP substrate.

Sequence of SHP-2 enzyme (Met1-Leu525) (Q06124 1-525): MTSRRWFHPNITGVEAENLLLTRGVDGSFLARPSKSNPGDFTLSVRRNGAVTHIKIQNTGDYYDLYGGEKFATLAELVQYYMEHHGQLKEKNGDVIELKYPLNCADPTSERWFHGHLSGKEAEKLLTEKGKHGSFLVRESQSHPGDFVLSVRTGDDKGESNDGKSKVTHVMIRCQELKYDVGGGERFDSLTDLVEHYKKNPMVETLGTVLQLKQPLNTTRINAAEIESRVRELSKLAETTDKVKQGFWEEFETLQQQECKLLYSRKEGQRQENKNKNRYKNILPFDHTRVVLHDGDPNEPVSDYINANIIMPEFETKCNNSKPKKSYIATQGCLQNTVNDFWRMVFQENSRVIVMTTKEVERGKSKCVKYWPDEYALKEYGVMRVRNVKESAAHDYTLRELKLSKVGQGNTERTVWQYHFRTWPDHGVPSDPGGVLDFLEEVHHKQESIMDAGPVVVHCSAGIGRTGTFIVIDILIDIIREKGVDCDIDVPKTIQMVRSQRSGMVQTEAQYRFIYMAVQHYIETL

`Cc1cc(C2(CN)C3CCN(c4nc5[nH]nc(Sc6ccnc(N)c6Cl)c5nc4CO)CC32)no1` (centres unmarked) [Example 57, (3-((2-amino-3-chloropyridin-4-yl)thio)-6-(7-(aminomethyl)-7-(5-methylisoxazol-3-yl)-3-azabicyclo[4.1.0]heptan-3-yl)-1H-pyrazolo[3,4-b]pyrazin-5-yl)methanol]: the IC50 (in general, the midpoint of a concentration-inhibition curve) in assay [1] (setting [3]) was under 500 nM; in assay [2] (KYSE-520, 2 h), 1000 to 5000 nM.

Regarding `Cc1cc(C2(CN)C3CCN(c4nc5[nH]nc(-c6ccnc(N)c6Cl)c5nc4CO)CC32)no1` (centres unmarked) [Example 58, (3-(2-amino-3-chloropyridin-4-yl)-6-(7-(aminomethyl)-7-(5-methylisoxazol-3-yl)-3-azabicyclo[4.1.0]heptan-3-yl)-1H-pyrazolo[3,4-b]pyrazin-5-yl)methanol], the IC50 is under 500 nM in assay [1] (setting [3]) and over 5000 nM in assay [2] (KYSE-520, 2 h).

Take `Cc1cc(C2(CN)C3CCN(c4cnc5c(N6CCCc7ncccc76)n[nH]c5n4)CC32)no1` (centres unmarked) [Example 60, (3-(3-(3,4-dihydro-1,5-naphthyridin-1(2H)-yl)-1H-pyrazolo[3,4-b]pyrazin-6-yl)-7-(5-methylisoxazol-3-yl)-3-azabicyclo[4.1.0]heptan-7-yl)methanamine]: the IC50 in assay [1] (setting [3]) is under 500 nM; in assay [2] (KYSE-520, 2 h) it was under 1000 nM.

In the case of `Cn1cc2c(Cl)c(-c3n[nH]c4nc(N5CCC6C(C5)C6(CN)c5cc(CO)on5)cnc34)ccc2n1` (centres unmarked) [Example 61, (3-(7-(aminomethyl)-3-(3-(4-chloro-2-methyl-2H-indazol-5-yl)-1H-pyrazolo[3,4-b]pyrazin-6-yl)-3-azabicyclo[4.1.0]heptan-7-yl)isoxazol-5-yl)methanol], the half-inhibitory concentration (IC50) in assay [1] (setting [3]) is under 500 nM; in assay [2] (KYSE-520, 2 h), under 1000 nM.

In the case of `Cc1cc(C2(CN)C3CCN(c4nc5[nH]nc(-c6ccc7nn(C)cc7c6Cl)c5c(=O)n4C)CC32)no1` (centres unmarked) [Example 62, 6-(7-(aminomethyl)-7-(5-methylisoxazol-3-yl)-3-azabicyclo[4.1.0]heptan-3-yl)-3-(4-chloro-2-methyl-2H-indazol-5-yl)-5-methyl-1,5-dihydro-4H-pyrazolo[3,4-d]pyrimidin-4-one], the IC50 in assay [1] (setting [3]) is under 500 nM; in assay [2] (KYSE-520, 2 h) it was 1000 to 5000 nM.

For the compound `NCC1(c2ccccc2)C2CCN(c3nc4nc(Sc5cccnc5C(F)(F)F)cnc4[nH]3)CC21` (centres unmarked) [Example 63, (7-phenyl-3-(5-((2-(trifluoromethyl)pyridin-3-yl)thio)-1H-imidazo[4,5-b]pyrazin-2-yl)-3-azabicyclo[4.1.0]heptan-7-yl)methanamine], the IC50 is under 500 nM in assay [1] and 1000 to 5000 nM in assay [2].

In the case of `NCC1(c2ccsc2)C2CCN(c3nc4nc(Sc5cccnc5C(F)(F)F)cnc4[nH]3)CC21` (centres unmarked) [Example 64, (7-(thiophen-3-yl)-3-(5-((2-(trifluoromethyl)pyridin-3-yl)thio)-1H-imidazo[4,5-b]pyrazin-2-yl)-3-azabicyclo[4.1.0]heptan-7-yl)methanamine], the IC50 was under 500 nM in assay [1] (setting [3]) and 1000 to 5000 nM in assay [2] (KYSE-520, 2 h).

`NCC1(c2ccccn2)C2CCN(c3nc4nc(Sc5cccnc5C(F)(F)F)cnc4[nH]3)CC21` (centres unmarked) [Example 65, (7-(pyridin-2-yl)-3-(5-((2-(trifluoromethyl)pyridin-3-yl)thio)-1H-imidazo[4,5-b]pyrazin-2-yl)-3-azabicyclo[4.1.0]heptan-7-yl)methanamine]: the half-maximal inhibitory concentration (IC50) was under 500 nM in assay [1] (setting [3]) and 1000 to 5000 nM in assay [2] (KYSE-520, 2 h).

On to `NCC1(c2ncccn2)C2CCN(c3nc4nc(Sc5cccnc5C(F)(F)F)cnc4[nH]3)CC21` (centres unmarked) [Example 66, (7-(pyrimidin-2-yl)-3-(5-((2-(trifluoromethyl)pyridin-3-yl)thio)-1H-imidazo[4,5-b]pyrazin-2-yl)-3-azabicyclo[4.1.0]heptan-7-yl)methanamine], for which the half-inhibitory concentration (IC50) is under 500 nM in assay [1] (setting [3]) and under 1000 nM in assay [2] (KYSE-520, 2 h).

Take `Cc1csc(C2(CN)C3CCN(c4nc5nc(Sc6cccnc6C(F)(F)F)cnc5[nH]4)CC32)n1` (centres unmarked) [Example 67, (7-(4-methylthiazol-2-yl)-3-(5-((2-(trifluoromethyl)pyridin-3-yl)thio)-1H-imidazo[4,5-b]pyrazin-2-yl)-3-azabicyclo[4.1.0]heptan-7-yl)methanamine]: the IC50 was under 500 nM in assay [1] (setting [3]) and under 1000 nM in assay [2] (KYSE-520, 2 h).
